The subject of one assay is serum IgE. Nature of the assay: Serum IgE level (ELISA) in atopic dermatitis mouse model induced by DNFB. The format is in vivo, mice. On the procedure: (§1) DNFB was sensitized by being diluted to 0.15% with a vehicle in which acetone and olive oil are mixed in a ratio of 3:1. Atopic dermatitis was induced by treating twice with a 0.2% DNFB solution. The capsiate-treated group was coated with 1 mM capsiate dissolved in acetone, 1 hour before DNFB treatment (See FIG. 5).
IgE capture antibody was added in the plate, and allowed to stand at 4° C. overnight. The next day, the capture antibody was washed with PBS/Tween buffer, and blocking buffer was added, followed by reaction at room temperature for 1 hour. After the blocking buffer was washed out, IgE standard and mouse serum were added, followed by standing at 4° C. overnight. The next day, after washing was performed, the IgE detection antibody was added, followed by reaction at room temperature for 1 hour. After washing was again performed, Streptavidin-HRP was added, followed by a reaction at room temperature for 30 minutes. After washing was again performed, TMB as a substrate was added. Then, a stop solution was added, and the absorbance was measured using an ELISA reader.
For orientation: In an ELISA, binding on a coated surface is turned into a signal by an enzyme label.

Assay [1] deals with activated mouse bone marrow derived mast cells (BMMCs). In words: ELISA of cytokines in activated BMMCs. The format is cell-based. The following applies: 50 μM, 37° C., 16 hours. On the procedure:
(§2) Bone marrow cells were obtained from tibias and femurs of approximately 8 to 10 week old C57/BL/6 mice and cultured in RPMI 1640 media supplemented with 10% FCS, 100 U/ml of penicillin, 100 μg/ml of streptomycin in the presence of mIL-3 (10 ng/ml) and mSCF (50 ng/ml) for 6 weeks in an incubator containing 5% CO2 at 37° C. […] BMMC were activated by 1 μg/ml of anti-mouse DNP-IgE for overnight, followed by the treatment with 10 ng/ml of DNP-HSA for 6 hr to 24 hr.
(§3) In order to understand the inhibitory effect of capsiate on the increase of cytokines in activated BMMCs, BMMCs were treated with 50 μM of capsiate at 37° C. for 16 hours, and the expression levels of cytokines IL-6 and TNF-α were confirmed through ELISA assay. Capture antibody for IL-6 or TNF-α was added in ELISA plate and incubated overnight 4° C. Next day, the capture antibody was washed with PBS/Tween buffer, and blocking buffer was added. After 1 hr incubation at room temperature, the blocking buffer was washed out and standard or sample supernatant was added. The plate was incubated overnight at 4° C. and washed out. After washing, detection antibody for IL-6 and TNF-α was added and incubated for 1 hr at room temperature, followed by washing the plate. Streptavidin-HRP was added to each well, incubated at room temperature for 30 mins, and then the plate was washed. TMB was used as a substrate. After TMB was added to the plate, stop solution was added to stop color development, and the plate was read using ELISA reader.

In assay [2] the test system is Th2 cell differentiation, spleen. Nature of the assay: Th2 cell differentiation in spleen of atopic dermatitis mouse model. It counts as in vivo, mice. The following applies: spleen cells; intracellular staining CD4, IL-4, IL-5; dosing as in example 3-1. On the procedure: as §1
(§4) After the spleen was taken out from mice, a single cell suspension was prepared, and then 3 μg/ml of anti-CD28 antibody was added in the plate to which anti-CD3 antibody adheres, followed by incubation for 3 days. On the third day, PMA (20 ng/ml) and ionomycin (1 μM) were added, followed by incubation for 5 hours. The cells were collected, and then subjected to intracellular staining using Cytofix/Cytoperm kit (BD bioscience) and anti-CD4 antibody, anti-IL-4 antibody, and anti-IL-5 antibody (BD bioscience). The dosing concentrations of DNFB and capsiate were the same as in example <3-1> above.

Assay [3] deals with activated human mast cell line (HMC-1 cells). Nature of the assay: ELISA of cytokines in activated HMC-1 cells. The following applies: 50 μM, 37° C., 16 hours. It counts as cell-based. The protocol:
as §3, with “HMC-1 cells were grown in IMDM media supplemented with 100 U/ml of penicillin, 100 µg/ml of streptomycin, and 10% heat-inactivated FBS in an incubator containing 5% CO2 at 37° C. HMC-1 cells were activated by treatment with A23187 and PMA In order” for “In order”, “in activated HMC-1 cells, HMC-1 cells were treated” for “in activated BMMCs, BMMCs were treated”, “of capsiate and capsaicin at 37°” for “of capsiate at 37°”, “Capture antibody was added” for “Capture antibody for IL-6 or TNF-α was added”, “detection antibody was added” for “detection antibody for IL-6 and TNF-α was added”

Assay [4] relates to BMCC induced with IgE antigen. In words: Pro-inflammatory cytokine expression (real-time PCR) in BMCC induced with IgE antigen. The format is cell-based, mouse. An excerpt:
The inflammatory cytokine expression inhibitory effect of capsiate was verified in BMCC induced with IgE antigen. The transcript expressions of cytokines IL-1β, IL-6, and TNF-α were verified through real-time PCR. Real-time PCR conditions were established by the same method as in example <1-2> above, and the primer set was purchased from QIAGEN.
Background: In qPCR the cycle at which signal appears reflects the starting amount.

The test system of assay [5] is activated human mast cell line (HMC-1 cells). Nature of the assay: Real-time PCR of cytokine transcripts in activated HMC-1 cells. The format is cell-based. The following applies: 50 μM, 37° C., 4 hours; HMC-1 cells activated with A23187 and PMA; normalized with GAPDH. On the procedure:
HMC-1 cells were grown in IMDM media supplemented with 100 U/ml of penicillin, 100 µg/ml of streptomycin, and 10% heat-inactivated FBS in an incubator containing 5% CO2 at 37° C. HMC-1 cells were activated by treatment with A23187 and PMA
In order to understand the inhibitory effect of capsiate on the increase of cytokines in activated HMC-1 cells, HMC-1 cells were treated with 50 μM of capsiate and capsaicin at 37° C. for 4 hours, respectively, and the transcript expressions of cytokines IL-6 and TNF-α were confirmed through real-time PCR. Total RNA was isolated from HMC-1 cells with RNeasy Mini kit (Quiagen, Valencia, Calif., USA) and the first strand of cDNA was synthesized using QuantTect Reverse Transcription kit (Quiagen, Germany). Real-time PCR was performed using KAPA SYBR fast qPCR kit (KAPA Blosystems, Woburn, Mass., USA). The following parameters were used for the PCR: 95° C. for 10 minutes, followed by 50 cycles of 95° C. for 20 seconds, 55° C. for 30 seconds, and 72° C. for 20 seconds. The gene expression levels were normalized with GAPDH expression level. The primer sets for IL-6 and TNF-α were purchased from QIAGEN.

Assay [6] relates to activated mouse bone marrow derived mast cells (BMMCs). In words: Real-time PCR of cytokine transcripts in activated BMMCs. The following applies: 50 μM, 37° C., 4 hours; BMMCs activated by anti-mouse DNP-IgE and DNP-HSA. The format is cell-based. On the procedure: as §2
In order to understand the inhibitory effect of capsiate on the increase in cytokines in activated BMMCs, BMMCs were treated with 50 μM of capsiate at 37° C. for 4 hours, and the transcript expressions of cytokines IL-6 and TNF-α were confirmed through real-time PCR. Total RNAs were isolated from […] with RNeasy Mini kit (Quiagen, Valencia, Calif., USA) and the first strand of cDNA was synthesized using QuantTect Reverse Transcription kit (Quiagen, Germany). Real-time PCR was performed using KAPA SYBR fast qPCR kit (KAPA Blosystems, Woburn, Mass., USA). The following parameters were used for the PCR: 95° C. for 10 mins, followed by 50 cycles of 95° C. for 20 s, 55° C. for 30 s, and 72° C. for 20s. The gene expression levels were normalized with GAPDH expression level. The primer sets for IL-6 and TNF-α were purchased from QIAGEN.

For assay [7], the system named is Th2 cell differentiation, lymph node. In words: Th2 cell differentiation in lymph node of atopic dermatitis mouse model. The format is in vivo, mice. The following applies: lymph node cells; intracellular staining CD4, IL-4, IL-5; dosing as in example 3-1. The protocol: as §1
as §4, with “lymphocytes were” for “the spleen was”

Assay [8] relates to passive cutaneous anaphylaxis (PCA). In words: Passive cutaneous anaphylaxis (PCA): capillary vessel permeability and mouse ear thickness. The format is in vivo. The protocol: The passive cutaneous anaphylaxis inhibitory effect of capsiate was verified by measuring capillary vessel permeability and mouse ear thickness. The capillary vessel permeability was verified by intravenously injecting Evan's blue, which is a blue staining agent, mixed with antigen, and quantifying the staining agent coming out from ear capillary vessels to the skin tissue. The quantification was conducted by cutting the ear tissue, putting the cut ear tissue in formamide, performing incubation at 65° C. for 16 hours, extracting Evan's blue in the ear tissue, and measuring the absorbance. The mouse ear thickness was measured using D15 ear thickness gauge.

For assay [9], the system named is atopic dermatitis sites of mice. In words: Chemokine expression (real-time PCR) in mouse atopic dermatitis sites. The format is in vivo. The following applies: atopic dermatitis site, 1 mM capsiate, dosing as in example 3-1. The protocol: as §1
The chemokine inhibitory effect of capsiate in atopic dermatitis sites of mice was verified. The dosing concentrations of DNFB and capsiate were the same as in example <3-1> above, and the transcript expressions of chemokines CCL11, CCL17, and CCL22 were confirmed through real-time PCR. Real-time PCR conditions were established by the same method as in example <1-2> above, and the primer set was purchased from QIAGEN.

Assay [10] has as its system atopic dermatitis induced by 2,4-dinitro-1-fluorobenzene (DNFB) in mice. Nature of the assay: Atopic dermatitis induced by DNFB in mice, histological staining and epidermal thickness. It counts as in vivo. The following applies: 1 mM capsiate in acetone coated 1 hour before DNFB treatment. On the procedure:
as §1
After being cut with induced atopic dermatitis, the skin tissue was fixed in 4% formaldehyde for 24 hours, followed by washing and dehydration, and then a […] skin section was prepared using a paraffin block. The tissue section was deparaffinized with xylene, immerged in alcohol, and then stained with hematoxyline and eosin. After the staining, the tissue was observed using a phase contrast microscope. As for the dermal thickness, the dermal thicknesses at five places on the tissue image were measured, and the mean and standard deviation thereof were obtained and shown on a graph.

The subject of assay [11] is atopic dermatitis sites of mice. In words: Cytokine expression (real-time PCR) in mouse atopic dermatitis sites. It counts as in vivo. The following applies: atopic dermatitis site, 1 mM capsiate, dosing as in example 3-1. The protocol:
as §1
The cytokine inhibitory effect of capsiate was verified at atopic dermatitis sites of mice. The dosing concentrations of DNFB and capsiate were the same as in example <3-1> above, and the transcript expressions of cytokines IL-4 and TSLP were confirmed through real-time PCR. Real-time PCR conditions were established by the same method as in example <1-2> above, and the primer set was purchased from QIAGEN.

Consider two molecules from US9351950B2, “Method for preventing or treating allergic disease using capsiate or salt thereof” (CATHOLIC UNIVERSITY OF KOREA INDUSTRY-ACADEMIC COOPERATION …, priority 2014, dated 2016).

Consider `COc1cc(COC(=O)CCCC/C=C/C(C)C)ccc1O` [capsiate], for which the “level of serum IgE increased due to DNFB” value in the assay with serum IgE is “decreased”. Also, in [1], the “expression level of IL-6 (ELISA)” value is reported as “significantly decreased” and the “expression level of TNF-α (ELISA)” value was “significantly decreased”. The “Th2 cell differentiation increased by DNFB in the spleen” value in [2] is given as “inhibited”. For the same molecule, in assay [3], the “expression level of IL-6 (ELISA)” value is recorded as “significantly decreased” and the “expression level of TNF-α (ELISA)” value is on record as “significantly decreased”. In [4], the “transcript expression of IL-1β increased by IgE antigen” value was “decreased”, the “transcript expression of IL-6 increased by IgE antigen” value is “decreased” and the “transcript expression of TNF-α increased by IgE antigen” value is recorded as “decreased”. Further, in [5], the “transcript expression of IL-6 (real-time PCR)” value is on record as “significantly decreased” and the “transcript expression of TNF-α (real-time PCR)” value is recorded as “significantly decreased”. In assay [6], the “transcript expression of IL-6 (real-time PCR)” value was “significantly decreased” and the “transcript expression of TNF-α (real-time PCR)” value is on record as “significantly decreased”. In assay [7], the “Th2 cell differentiation increased by DNFB at the lymph node” value is “inhibited”. In assay [8] (Evan's blue extracted from mouse ear tissue, absorbance), the “capillary vessel permeability increased by DNP IgE” value is given as “inhibited”. Further, the “ear edema increased by DNP IgE” value in assay [8] (mouse ear thickness, ear thickness gauge) is “inhibited”. Besides, in assay [9], the “transcript expression of CCL11 increased by DNFB” value is “decreased”, the “transcript expression of CCL17 increased by DNFB” value was “decreased” and the “transcript expression of CCL22 increased by DNFB” value was “decreased”. Further, the “atopic dermatitis induced by DNFB in the mice” value in assay [10] is on record as “inhibited”. For the same molecule, the “dermal thickness increased by DNFB” value in assay [10] (H&E stained skin section) was “decreased”. For the same molecule, in [11], the “transcript expression of IL-4 increased by DNFB” value is recorded as “decreased” and the “transcript expression of TSLP increased by DNFB” value is “decreased”.
Consider `COc1cc(CNC(=O)CCCC/C=C/C(C)C)ccc1O` [capsaicin, reference compound], for which, in assay [1], the “expression level of IL-6 (ELISA)” value was “increased” and the “expression level of TNF-α (ELISA)” value is listed as “increased”. In [3], the “expression level of IL-6 (ELISA)” value is on record as “increased” and the “expression level of TNF-α (ELISA)” value is “increased”. For the same molecule, in assay [5], the “transcript expression of IL-6 (real-time PCR)” value is “increased” and the “transcript expression of TNF-α (real-time PCR)” value was “increased”. Also, in assay [6], the “transcript expression of IL-6 (real-time PCR)” value is “increased” and the “transcript expression of TNF-α (real-time PCR)” value is “increased”.
